The values that follow come from ChEMBL document CHEMBL3352205, “Indazole- and indole-5-carboxamides: selective and reversible monoamine oxidase B inhibitors with subnanomolar potency” (J Med Chem, 2014).

In data set [1] the target is T1, Amine oxidase [flavin-containing] A (Homo sapiens, UniProt P21397).
T1 sequence (P21397 whole entry): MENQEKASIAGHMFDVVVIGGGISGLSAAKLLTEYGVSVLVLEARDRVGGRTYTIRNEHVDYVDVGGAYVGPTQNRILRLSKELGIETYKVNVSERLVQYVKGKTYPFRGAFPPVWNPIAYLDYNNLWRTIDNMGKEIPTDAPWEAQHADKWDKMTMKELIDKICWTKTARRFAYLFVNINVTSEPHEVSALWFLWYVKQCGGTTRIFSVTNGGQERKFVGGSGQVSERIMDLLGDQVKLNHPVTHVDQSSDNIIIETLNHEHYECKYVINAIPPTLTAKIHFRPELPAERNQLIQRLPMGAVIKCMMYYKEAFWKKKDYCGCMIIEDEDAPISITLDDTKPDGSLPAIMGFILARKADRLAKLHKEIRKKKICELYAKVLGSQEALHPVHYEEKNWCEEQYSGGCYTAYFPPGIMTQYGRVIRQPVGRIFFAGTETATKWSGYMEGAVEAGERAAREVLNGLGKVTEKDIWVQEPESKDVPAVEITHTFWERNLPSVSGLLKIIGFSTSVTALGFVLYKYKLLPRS
Nature of the data set: Inhibition of human recombinant MAO-A expressed in baculovirus-infected insect cells using p-tyraimne substrate. As to conditions: read-out: IC50; call rule not given here.

For the next data set, the species on record is Homo sapiens. In words: Selectivity index, ratio of IC50 for human recombinant MAO-A to IC50 for human recombinant MAO-B.
For data set [2], the target named is T2, Amine oxidase [flavin-containing] B (Homo sapiens, UniProt P27338).
T2 sequence (P27338 whole entry): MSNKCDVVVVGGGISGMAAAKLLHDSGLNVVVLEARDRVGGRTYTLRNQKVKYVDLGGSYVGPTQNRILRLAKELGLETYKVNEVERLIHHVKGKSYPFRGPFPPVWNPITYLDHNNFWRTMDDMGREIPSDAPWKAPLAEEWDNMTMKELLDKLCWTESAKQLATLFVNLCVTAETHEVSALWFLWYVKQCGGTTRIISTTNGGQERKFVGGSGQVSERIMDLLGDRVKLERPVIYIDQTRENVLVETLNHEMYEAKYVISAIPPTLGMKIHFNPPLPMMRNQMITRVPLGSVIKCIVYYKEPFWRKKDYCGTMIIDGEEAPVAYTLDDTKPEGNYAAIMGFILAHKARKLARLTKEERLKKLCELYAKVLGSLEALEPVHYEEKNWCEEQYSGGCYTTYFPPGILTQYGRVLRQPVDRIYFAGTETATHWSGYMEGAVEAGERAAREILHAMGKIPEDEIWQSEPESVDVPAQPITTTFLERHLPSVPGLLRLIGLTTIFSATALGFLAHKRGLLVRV
Nature of the data set: Reversible inhibition of human recombinant MAO-B expressed in baculovirus-infected insect cells using p-tyraimne substrate at 1 nM for 22 mins. As to conditions: 0.001 µM.

In data set [3] the target is T3, Amine oxidase [flavin-containing] A (Rattus norvegicus, UniProt P21396).
T3 sequence (P21396 whole entry): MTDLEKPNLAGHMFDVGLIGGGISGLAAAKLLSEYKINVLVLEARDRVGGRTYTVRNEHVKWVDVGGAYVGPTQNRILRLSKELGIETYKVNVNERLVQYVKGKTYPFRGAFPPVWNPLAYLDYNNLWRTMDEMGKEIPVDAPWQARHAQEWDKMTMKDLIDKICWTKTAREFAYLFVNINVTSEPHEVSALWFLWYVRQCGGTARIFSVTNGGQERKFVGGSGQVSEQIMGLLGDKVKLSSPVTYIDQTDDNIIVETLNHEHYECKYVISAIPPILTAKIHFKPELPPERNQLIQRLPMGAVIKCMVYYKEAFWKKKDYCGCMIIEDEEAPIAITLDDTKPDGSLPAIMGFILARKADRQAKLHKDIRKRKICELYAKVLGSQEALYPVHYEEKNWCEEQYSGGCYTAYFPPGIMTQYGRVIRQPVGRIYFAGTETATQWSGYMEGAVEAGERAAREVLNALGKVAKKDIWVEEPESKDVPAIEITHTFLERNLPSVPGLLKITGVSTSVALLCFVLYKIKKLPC
Nature of the data set: Inhibition of rat MAO-A from mitochondria-enriched rat liver fractions using p-tyraimne substrate.

Data set [4] has as its target T4, Amine oxidase [flavin-containing] B (Rattus norvegicus, UniProt P19643).
T4 sequence (P19643 whole entry): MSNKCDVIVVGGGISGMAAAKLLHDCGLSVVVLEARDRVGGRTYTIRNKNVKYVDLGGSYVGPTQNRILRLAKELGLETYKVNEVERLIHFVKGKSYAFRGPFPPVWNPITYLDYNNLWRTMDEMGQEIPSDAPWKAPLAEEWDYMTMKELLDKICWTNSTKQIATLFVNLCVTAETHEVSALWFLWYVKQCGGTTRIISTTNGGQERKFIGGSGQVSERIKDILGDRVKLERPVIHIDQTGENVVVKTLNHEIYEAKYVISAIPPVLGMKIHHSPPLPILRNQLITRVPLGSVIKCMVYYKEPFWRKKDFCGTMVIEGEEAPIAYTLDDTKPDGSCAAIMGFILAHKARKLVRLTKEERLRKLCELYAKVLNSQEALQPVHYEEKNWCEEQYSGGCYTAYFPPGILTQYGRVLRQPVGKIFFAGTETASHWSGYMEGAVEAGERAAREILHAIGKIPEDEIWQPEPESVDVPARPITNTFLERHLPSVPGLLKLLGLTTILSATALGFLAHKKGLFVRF
Nature of the data set: Inhibition of rat MAO-B from mitochondria-enriched rat liver fractions using p-tyraimne substrate.

Data set [5] has as its target T3, Amine oxidase [flavin-containing] A. In words: Inhibition of rat MAO-A in rat-liver mitochondrial-fraction using [14C]-5-HT substrate.
In data set [6] the target is T4, Amine oxidase [flavin-containing] B. In words: Inhibition of rat MAO-B in rat-liver mitochondrial-fraction using [14C]-PEA substrate.

A word on the IC50: it is the midpoint of a concentration-inhibition curve. For `O=C(Nc1ccc(Cl)c(Cl)c1)c1ccc2[nH]ncc2c1`, the IC50 in data set [1] is at least 10000 nM; in data set [3], above 10000 nM; in data set [4] it was 1.43 nM. Further, the Ratio IC50 in the data set listed under Homo sapiens stood at 17100. Moreover, the “inhibition (INH)” value in data set [2] was “Active”.
`C#CCNCc1cc2cc(OCc3ccccc3)ccc2[nH]1`: the figures for the IC50 in data set [5] and in data set [6] were 22 nM and 1250 nM, respectively.
